“And” between values parts separate entries of the source, which are not always exact repeats. Equal values may be shown once.
Experiments:
[1] = tested on: D2/3R; assay: MicroPET study in rats; format: in vivo, Sprague-Dawley rats
Method: Animal experiments were performed by licensed investigators in compliance with the Law on Animal Experiments of The Netherlands. The protocol was approved by the Committee on Animal Ethics of the University of Groningen. Young male (10–12 weeks of age, 300–350 g body weight) Sprague-Dawley rats (Harlan, the Netherlands) were used for all experiments. The rats were maintained at a 12-h light/12-h dark regime and were fed standard laboratory chow ad libitum.
Distribution of the radiotracers was studied in rats pre-treated, at random, with physiological saline (controls) or raclopride tartrate (1 mg/kg calculated per raclopride base, equivalent to 2.9 μmol/kg). Saline and raclopride were administered intravenously (1 mL/kg injected volume).
An additional group of saline pre-treated rats, injected with [^11C]raclopride, served as positive controls for D2/3R-specific brain uptake.
Two rats were scanned simultaneously. Before all manipulations, animals were anesthetized with a mixture of isoflurane/air (inhalation anesthesia, 5 % ratio during induction, 2 % at maintenance). Cannulae were placed into the rats’ left femoral arteries and veins; the operation took 45–50 min. The rats were positioned supine inside the camera (Focus 220 microPET, Siemens-Concorde), one above the other with their heads in the camera’s field of view. A 515-s transmission scan with a Co-57 point source was performed. Tracer was injected through the venous cannula as a slow bolus (1 mL volume, 60 s long) using an infusion pump. The second (upper) animal was injected 16 min after the first (lower).
PET acquisition was started during the injection of radioactivity in the first rat. A 106-min long (76 min long in the case of [^11C]raclopride) list-mode acquisition protocol was used for the scan.
List-mode data from the 106-min-long and 76-min-long scans were reframed into, respectively, 90-min-long and 60-min-long dynamic sequences of 6 × 10, 4 × 30, 2 × 60, 1 × 120, 1 × 180, 4 × 300, 3 × 600, and (for 90-min-long scans) 2 × 900 s frames. The data were reconstructed per time frame using an iterative reconstruction algorithm (attenuation-weighted 2-dimensional ordered-subset expectation maximization, provided by Siemens; 4 iterations, 16 subsets; zoom factor 2). Datasets were fully corrected for random coincidences, scatter, and attenuation. Data from the transmission scan were used for attenuation correction. The final datasets consisted of 95 slices, with a slice thickness of 0.8 mm and an in-plane image matrix size of 128 × 128 and pixel size of 0.47 × 0.47 mm.
Reconstructed images were analyzed with Inveon 2.0 software (Siemens Medical Solutions, USA, Inc). Regions of interest (ROIs) were drawn manually on a T2-weighted MRI template of rat brain around the striatum, brainstem, cortex, hippocampus, hypothalamus, thalamus, olfactory bulbs, and cerebellum around the whole brain and around the pituitary gland. The MRI template was co-registered with the PET scan by image fusion. The time-activity curves (TAC) per ROI were determined in Bq/cm^3 units and converted into standardized uptake values (SUVs).
Degree of D2/3R-specific binding of the tracers was characterized by BPND (as given above) or the specific binding ratio (SBR) given as target region activity/cerebellar activity - 1. Both were calculated under control conditions and in response to the raclopride challenge.

[2] = Ex vivo tissue uptake after the PET scan (gamma-counter); format: in vivo, Sprague-Dawley rats
Method: After the end of the PET scans (i.e., 98 ± 8 min after tracer injection), anesthetized animals were sacrificed by heart extirpation and dissected. Samples of brain and peripheral tissues were taken. All samples were weighed, and their radioactivity was measured in a gamma-counter.

[3] = raclopride 1 mg/kg, after PET scan

In the case of `Oc1ccc2c(c1)O[C@@H](CNCc1ccc(OCC[18F])cc1)CC2` [[^18F]FEt-AMC13], the “decrease in D2/3R-specific binding in the striatum in vivo” value ([1]; 1 mg/kg (2.9 μmol/kg) raclopride, range over estimates) is reported as 17–39%, the “decrease of peak PET-based striatal SBR” value ([1]; 1 mg/kg raclopride, p = 0.25) is reported as 17% and the blood-brain barrier penetration ([1]; PET in rats) is reported as “good blood-brain barrier (BBB) penetration”. For the same compound, the “Brain uptake, peak” value ([1]; PET, 3 min after radiotracer injection, control rats) was 0.7 % ID, the “D2/3R occupancy by the tracer itself (crude estimation)” value ([1]; approach of Skinbjerg et al., all experiments) was “no more than 3%” and the “peak PET-based striatal SBR” value ([1]; pre-treatment with 1 mg/kg (2.9 μmol/kg) raclopride) was 0.90 ± 0.11. The “peak PET-based striatal SBR” value ([1]; saline pre-treated) was 1.08 ± 0.25, the “Striatum-to-cerebellum uptake ratio (PET)” value ([1]; saline pre-treated rats, peak (45 min post-injection for [^18F]FEt-AMC13 and [^11C]raclopride)) was 2.08 and 2.1 and 2.08 ± 0.25 and the “Striatal SBR based on after-scan biodistribution measurements” value ([2]; 1 mg/kg raclopride) was 0.74 ± 0.27. For the same compound, the “decrease of biodistribution-based striatal SBR” value ([2]; 1 mg/kg raclopride, p = 0.17) was 31%, the “Ex vivo uptake, Adipose tissue” value ([2]; RAC) was 0.09±0.02 SUV and the “Ex vivo uptake, Adrenal glands” value ([2]; RAC) was 0.59±0.20 SUV. The “Ex vivo uptake, Bladder” value ([2]; RAC) was 0.83±0.64 SUV, the “Ex vivo uptake, Blood cells” value ([2]; RAC) was 0.06±0.01 SUV and the “Ex vivo uptake, Bone” value ([2]; RAC) was 0.17±0.05 SUV. The “Ex vivo uptake, Bone marrow” value ([2]; RAC) was 2.00±3.17 SUV, the “Ex vivo uptake, Caecum” value ([2]; RAC) was 0.63±0.84 SUV and the “Ex vivo uptake, Duodenum” value ([2]; RAC) was 4.01±4.63 SUV. For the same compound, the “Ex vivo uptake, Heart” value ([2]; RAC) was 0.16±0.02 SUV, the “Ex vivo uptake, Kidney” value ([2]; RAC) was 0.48±0.07 SUV and the “Ex vivo uptake, Large intestine” value ([2]; RAC) was 0.41±0.33 SUV. For the same compound, the “Ex vivo uptake, Large intestine content” value ([2]; RAC) was 0.09±0.12 SUV, the “Ex vivo uptake, Liver” value ([2]; RAC) was 1.43±0.30 SUV and the “Ex vivo uptake, Lung” value ([2]; RAC) was 1.38±0.20 SUV. The “Ex vivo uptake, Muscle” value ([2]; RAC) was 0.19±0.05 SUV, the “Ex vivo uptake, Pancreas” value ([2]; RAC) was 1.47±0.32 SUV and the “Ex vivo uptake, Plasma” value ([2]; RAC) was 0.23±0.01 SUV. The “Ex vivo uptake, Prostate” value ([2]; RAC) was 0.40±0.26 SUV, the “Ex vivo uptake, Small intestine” value ([2]; RAC) was 2.39±1.94 SUV and the “Ex vivo uptake, Small intestine content” value ([2]; RAC) was 24.6±32.8 SUV. The “Ex vivo uptake, Spleen” value ([2]; RAC) was 0.52±0.10 SUV, the “Ex vivo uptake, Stomach” value ([2]; RAC) was 2.09±1.19 SUV and the “Ex vivo uptake, Submandibular gland” value ([2]; RAC) was 0.28±0.06 SUV. The “Ex vivo uptake, Testes” value ([2]; RAC) was 0.42±0.10 SUV, the “Ex vivo uptake, Thymus” value ([2]; RAC) was 0.30±0.06 SUV and the “Ex vivo uptake, Urine” value ([2]; RAC) was 4.40±3.88 SUV. For the same compound, the “Ex vivo uptake, Whole blood” value ([2]; RAC) was 0.17±0.01 SUV, the “Ex vivo uptake, Adipose tissue” value ([2]; SAL) was 0.30±0.42 SUV and the “Ex vivo uptake, Adrenal glands” value ([2]; SAL) was 0.84±0.29 SUV. The “Ex vivo uptake, Bladder” value ([2]; SAL) was 1.00±0.52 SUV, the “Ex vivo uptake, Blood cells” value ([2]; SAL) was 0.07±0.01 SUV and the “Ex vivo uptake, Bone” value ([2]; SAL) was 0.24±0.21 SUV. For the same compound, the “Ex vivo uptake, Bone marrow” value ([2]; SAL) was 0.68±0.38 SUV, the “Ex vivo uptake, Caecum” value ([2]; SAL) was 0.46±0.29 SUV and the “Ex vivo uptake, Duodenum” value ([2]; SAL) was 1.15±0.25 SUV. For the same compound, the “Ex vivo uptake, Heart” value ([2]; SAL) was 0.15±0.04 SUV, the “Ex vivo uptake, Kidney” value ([2]; SAL) was 0.64±0.20 SUV and the “Ex vivo uptake, Large intestine” value ([2]; SAL) was 0.57±0.36 SUV. For the same compound, the “Ex vivo uptake, Large intestine content” value ([2]; SAL) was 0.06±0.03 SUV, the “Ex vivo uptake, Liver” value ([2]; SAL) was 1.51±0.14 SUV and the “Ex vivo uptake, Lung” value ([2]; SAL) was 1.67±0.41 SUV. For the same compound, the “Ex vivo uptake, Muscle” value ([2]; SAL) was 0.17±0.04 SUV, the “Ex vivo uptake, Pancreas” value ([2]; SAL) was 1.31±0.31 SUV and the “Ex vivo uptake, Plasma” value ([2]; SAL) was 0.22±0.04 SUV. The “Ex vivo uptake, Prostate” value ([2]; SAL) was 0.62±0.18 SUV, the “Ex vivo uptake, Small intestine” value ([2]; SAL) was 3.15±2.00 SUV and the “Ex vivo uptake, Small intestine content” value ([2]; SAL) was 54.2±57.7 SUV. The “Ex vivo uptake, Spleen” value ([2]; SAL) was 0.46±0.05 SUV, the “Ex vivo uptake, Stomach” value ([2]; SAL) was 1.36±0.35 SUV and the “Ex vivo uptake, Submandibular gland” value ([2]; SAL) was 0.36±0.12 SUV. The “Ex vivo uptake, Testes” value ([2]; SAL) was 0.40±0.06 SUV, the “Ex vivo uptake, Thymus” value ([2]; SAL) was 0.32±0.06 SUV and the “Ex vivo uptake, Urine” value ([2]; SAL) was 11.0±9.5 SUV. The “Ex vivo uptake, Whole blood” value ([2]; SAL) was 0.16±0.03 SUV, the “Ex vivo uptake, Brainstem” value [2, 3] was 0.16 ± 0.04 SUV and the “Ex vivo uptake, Cerebellum” value [2, 3] was 0.13 ± 0.02 SUV. The “Ex vivo uptake, Cortex” value [2, 3] was 0.16 ± 0.04 SUV, the “Ex vivo uptake, Hippocampus” value [2, 3] was 0.23 ± 0.08 SUV and the “Ex vivo uptake, Mean brain uptake” value [2, 3] was 0.16 ± 0.04 SUV. For the same compound, the “Ex vivo uptake, Olfactory bulbs” value [2, 3] was 0.15 ± 0.04 SUV, the “Ex vivo uptake, Parietal bone” value [2, 3] was 0.10 ± 0.01 SUV and the “Ex vivo uptake, Pituitary” value [2, 3] was 0.59 ± 0.20 SUV. For the same compound, the “Ex vivo uptake, Rest of brain” value [2, 3] was 0.18 ± 0.03 SUV, the “Ex vivo uptake, Striatum” value [2, 3] was 0.23 ± 0.08 SUV and the “Ex vivo uptake, Thalamus + hypothalamus” value [2, 3] was 0.19 ± 0.05 SUV. The “Striatal SBR based on after-scan biodistribution measurements” value ([2]; saline pre-treated) was 1.07 ± 0.10, the “Ex vivo uptake, Brainstem” value ([2]; saline, after PET scan) was 0.18 ± 0.02 (6) SUV and the “Ex vivo uptake, Cerebellum” value ([2]; saline, after PET scan) was 0.13 ± 0.01 (8) SUV. For the same compound, the “Ex vivo uptake, Cortex” value ([2]; saline, after PET scan) was 0.18 ± 0.01 (5) SUV, the “Ex vivo uptake, Hippocampus” value ([2]; saline, after PET scan) was 0.22 ± 0.02 (2) SUV and the “Ex vivo uptake, Mean brain uptake” value ([2]; saline, after PET scan) was 0.18 ± 0.01 SUV. The “Ex vivo uptake, Olfactory bulbs” value ([2]; saline, after PET scan) was 0.17 ± 0.01 (7) SUV, the “Ex vivo uptake, Parietal bone” value ([2]; saline, after PET scan) was 0.10 ± 0.01 SUV and the “Ex vivo uptake, Pituitary” value ([2]; saline, after PET scan) was 0.76 ± 0.08 SUV. The “Ex vivo uptake, Rest of brain” value ([2]; saline, after PET scan) was 0.20 ± 0.02 (3) SUV, the “Ex vivo uptake, Thalamus + hypothalamus” value ([2]; saline, after PET scan) was 0.19 ± 0.003 (4) SUV and the “Ex vivo uptake, Striatum” value ([2]; saline, after PET scan (98 ± 8 min p.i.)) was 0.28 ± 0.03 (1) SUV.
